# Legend:
# Assay type in all cases: cell-based
# 1205Lu C×43 (C) = test: Number of viable cells after treatment (FIG. 11); conditions: normoxia; tirapazamine at 28.5 μM
# Method: (§1) The cell lines shown in FIG. 11 include: 1205Lu plasmid (P), 1205Lu […]), 1205Lu-[…] (T). […] The cells were treated with non-thermal plasma (NTP), tirapazamine at 28.5 μM (TPZ), or the combination (NTP/TPZ). […] (T) but not for 1205Lu plasmid (P). […] Under […], all treatments (NTP, TPZ and NTP/TPZ) cause a decrease in cell number from the original number of cells (6×10^6) to approximately (3×10^6) for all melanoma cell lines. Under hypoxia, TPZ causes a decrease in cell number from the original number of cells (6×10^6) to approximately (1.2-0.6×10^5). Under hypoxia, NTP/TPZ causes a decrease from the original number of cells (6×10^6) to approximately (0.1-0.03×10^5). […] In addition, the target area of the NTP torch dramatically increases under these conditions. The ROS generated by NTP and tirapazamine induces the bystander effect and promotes the spreading of cell death signals well beyond the area of the plasma treatment. Upon treatment for 24 hours with NTP+/- tirapazamine at normal conditions (normoxia) or hypoxic conditions (hypoxia), the combination of NTP+/- tirapazamine enhances cell death under hypoxia. Furthermore, the area in which the plasma torch affects the cells increases only in the cells overexpressing the functional gap junctions.
# 1205Lu plasmid (P) = test: Number of viable cells after treatment (FIG. 11); conditions: normoxia; tirapazamine at 28.5 μM
# Method: as §1
# 1205Lu-T154A (T) = test: Number of viable cells after treatment (FIG. 11); conditions: normoxia; tirapazamine at 28.5 μM
# Method: as §1
# 1205Lu melanoma cells = test: IC50 of tirapazamine for melanoma cells; conditions: Homo sapiens
# 1205Lu cells = test: Photographic assessment of cell death (FIGS. 12 and 13)
# Description: The broken lines shown in FIGS. 12 and 13 demarcate live cells from dead cells. The portions shown with asterisks represent the dead cells.
# HIF1α = HIF1α expression under hypoxia (FIG. 14)
# Description: HIF1α is a transcription factor that enhances transcription of many metastasis related genes. The expression of HIF1α usually increases under hypoxic conditions.
smiles,measurement,setting,value
"Nc1n[n+]([O-])c2ccccc2[n+]1[O-] [TPZ, 3-Aminobenzo[e][1,2,4]triazine 1,4-dioxide]",change in viable cells,1205Lu C×43 (C),decrease in viable cells
same,change in viable cells,1205Lu plasmid (P),decrease in viable cells
same,change in viable cells,1205Lu-T154A (T),decrease in viable cells
same,IC50,1205Lu melanoma cells,28.5 µM
same,cell toxicity (FIG. 13),1205Lu cells; hypoxia,induces cell toxicity only under hypoxic conditions
same,effect on cells (FIG. 12),1205Lu cells; normal oxygen conditions,no effect
same,expression of HIF1α compared with control,HIF1α; cell line C,decrease
same,expression of HIF1α compared with control,HIF1α; cell line P,increase
same,expression of HIF1α compared with control,HIF1α; cell line T,increase
